From patent publication US6733971B2, “Method for identifying an agent that affects a hedgehog signaling pathway” (priority 1998, dated 2004)

What was measured:
Ci = Ci induction in cl-8 cells with or without HH-N conditioned medium, Western blot; type: cell-based, Drosophila
Description: cl-8 cells were cultured as described in Van Leeuwen, F., et al. Nature, 368:342-344, 1994. Culture and transfection of S2 cells were performed as described in Porter, J. A. et al. Cell, 86: 21-34, 1996. The conditioned medium was made by culturing transfected S2 cells in cl-8 medium, and induced by adding CUSO4, to the final concentration of 0.5 Mm overnight. The conditioned medium was harvested the next day, centrifuged to remove S2 cells and the supernatant was used. To make lysate from cl-8 cells, cl-8 cells were washed, harvested in cold phosphate buffered saline (PBS), and then resuspended in NP-40 lysis buffer (150 Mm NaCl, 50 Mm Tris pH8, 1% NP-40, 1 Mm EDTA, 20 μg/ml aprotinin, 20 μg/ml leupeptin, 1 μg/ml pepstatin A, 2.5 μg/ml antipain, 100 μM PMSF, 50 mM NaF, 5 mM Na2P4O7). Cells were lysed at 4° C. for 10 minutes, then centrifuged at 13,000×g for 10 minutes. The supernatant was saved for Western blot analysis.
SDS-PAGE and protein transfer were carried out by standard methods. The primary antibodies used were: rat monoclonal anti-Ci 2Al 1:20 dilution; mouse monoclonal anti-Ptc 1:1000 dilution; mouse monoclonal anti-actin 1:2500. Secondary antibodies were from Jackson Immunologicals. The filters were developed using SuperSignal from Pierce.
Tautomycin (TAU) and okadaic acid (OA) were purchased from Calbiochem and dissolved in dimethyl sulfoxide (DMSO) to different concentrations. The phosphatase inhibitors were mixed with conditioned medium and the concentration of DMSO was adjusted to 0.2% for each sample. cl-8 cells were incubated with conditioned medium and phosphatase inhibitor mixture for 4 hours and lysed for analysis.

HNF3β and Isl-1 = assay: SHH induction of HNF3β and Isl-1 in chick embryo neurotube explant; type: cell-based
Excerpt: Most of the components identified so far in the HH signaling pathway are conserved from Drosophila to vertebrates. The phosphatase activity found in cl-8 cells may also be conserved in vertebrates. Sonic HH (SHH), the vertebrate homolog of HH, induced the floor plate marker hepatocyte nuclear factor 3β (HNF3) and motor neuron marker islet-1 (Is1-1) in the developing neurotube. In chick embryo neurotube explant, exogenously provided SHH induced the expression of HNF3β and Isl-1.

[1] = system: PP1 and PP2A enzyme activity; assay: Protein phosphatase assay on nuclear extracts of control and Shh treated P19 cells; type: biochemical, mouse; details: 2 nM, 15 minutes at 30° C., nuclear extracts of 1 nM Shh treated P19 cells
Description: P19 cells were treated with or without 1 nM Shh for 36 hours and nuclear extracts from these cells were obtained as described earlier. A protein phosphatase assay system™ (Life Technologies, Bethesda) was used to quantitate the phosphatase activity present in the control and induced extracts. P19 cells were treated with or without 1 nM Shh for 36 hours and nuclear extracts from these cells were obtained and incubated with 2 nM OA or 4 nM Inh-2 protein for 15 minutes at 30° C. Results are expressed as mean±sd from three separate experiments.

Isl1 mRNA = Isl1 mRNA in P19 cells, RT-PCR; type: cell-based, mouse; details: 5 nM for 12 hours, 1 nM Shh-N for 24 hours
Description: Methods described in Example 6 were used in addition to the following protocols. P19 cells were treated with (FIG. 8A, lanes 2 and 4) or without (FIG. 8A, lanes 1 and 3) 1 nM Shh-N for 24 hours and 5 nM OA (FIG. 8A, lanes 3 and 4) for 12 hours and total RNA was obtained. An internal control containing a 763 bp insert into the SphI site of the Islet-1 cDNA was transcribed in vitro to prepare sense-oriented RNA. 1 ng of this RNA along with 100 ng of total RNA from appropriately treated P19 cells was reverse transcribed using Superscript II™ and one-tenth of each reaction was PCR amplified. Specific primers for Islet-1; Forward primer: 5′TCAAAC CTA CTT TGG GGT CTT A 3′SEQ ID NO:5. Reverse primer: 5′ATCGCCGGGGATGAGCTGGCGGCT 3′SEQ ID NO:6, and for COUP-TFII; Forward primer: 5′GATATGGCAATGGTAGTCAGCACGTGG 3′. SEQ ID NO:7, Reverse primer: 5′AGCTTCTCCACTTGCTCTTGG 3′SEQ ID NO:8, were used to PCR amplify (94° C. for 1 minute, 54° C. for 1 minute, and 72° C. for 1 minute. Twenty-two cycles were used for amplifying Islet-1 and the resulting products were separated on a 1% agarose gel in TAE buffer and visualized by ethidium bromide staining. A 1 kb DNA ladder (Stratagene) was used to estimate the size of the products. A 427 bp Isl1 fragment and a 838 bp COUP-TFII fragment was used to estimate changes in mRNA levels.

GliRE = assay: GliRE-CAT reporter in P19 cells cotransfected with Shh expression plasmid; type: cell-based, mouse; details: 5 nM for 14 hours
Description: P19 cells were cotransfected with pBKCMV-Shh expression plasmid and a GliRECAT reporter plasmid (1 μg)as described earlier. Krishnan, V., et al., Mol. Endo., 11: 1458-1466, 1997. Cells cotransfected with pBKCMY-Shh or pBKCMV plasmid (200 ng) were treated with or without 5 nM OA for 14 hours and reporter gene activity was assayed as described earlier. Gorman, C. M., et al., Mol. and Cell. Biology, 2:1044-1051, 1982. Results are expressed as mean±sd from three separate experiments.

PP2B = details: cited from earlier work
PP2C = details: cited from earlier work

C=C1[C@@H](O)[C@@H]2O[C@]3(CC[C@H](/C=C/[C@@H](C)[C@@H]4CC(C)=C[C@@]5(O[C@H](C[C@@](C)(O)C(=O)O)CC[C@H]5O)O4)O3)CC[C@H]2O[C@@H]1[C@@H](O)C[C@H](C)[C@H]1O[C@@]2(CCCCO2)CC[C@H]1C [OA, okadaic acid]
Ci level (Ci; 1 nM, absence of HH signaling): significantly reduced
Ci mobility form (phosphorylation) (Ci; 1 nM, absence of HH signaling): shifted Ci to the low mobility form
Ci detection (Ci; 5 to 10 nM): completely undetectable
Ci level and mobility (Ci; presence of HH): overcame the induction effect of HH
induction of HNF3β and Isl-1 (HNF3β and Isl-1; 1 nM, 2.5 mg/ml of SHH): reduced the induction
effect on induction of HNF3β and Isl-1 at higher SHH (HNF3β and Isl-1; 1 nM, 10 mg/ml of SHH): reversed
induction of HNF3β and Isl-1 (HNF3β and Isl-1; 10 nM, 10 mg/ml of SHH): completely blocked the induction
Shh-induced phosphatase activity [1]: completely abolished
Shh-N induction of Is11 mRNA (Isl1 mRNA): completely blocked
Shh-enhanced GliRE-CAT reporter activity (GliRE): sensitive
effect on PP2B (PP2B): no effect
effect on PP2C (PP2C): no effect
